Data as given in patent US20260207668A1, “MANIPULATION OF ADRENERGIC RECEPTORS TO INFLUENCE IMMUNE CELL DIFFERENTIATION AND FUNCTION” (Salk Institute for Biological Studies, priority 2022, published 2026).

How the values were obtained:
PDAC tumors = experiment: Orthotopic PDAC (6419c5) in mice, beta-blocker alone or with ICB; format: in vivo; conditions: for tumor growth (abdominal ultrasound volume and tumor mass): in combination with ICB (anti-PD-1 + anti-CTLA-4); for tumor growth: agent alone
[1] = tested on: CD8+ T cells in PDAC tumors; experiment: scRNA Seq of tumor infiltrating T cells from PDAC tumors; format: in vivo, mice
Procedure: For scRNA Seq of PDAC tumors 4 tumors each per treatment condition were pooled and stained for sorting. The following cell populations were sorted into RPMI supplemented with 20% fetal bovine serum: Thy1.2^+ CD45.2^+ (T cells), Thy1.2^− CD45.2^+ (Non T cell leukocytes), YFP^+ CD45.2^− (tumor cells). Sorted cells were spun down at 420 rcf at 4° C. for 4 minutes, resuspended in PBS+2% fetal bovine serum and mixed at 8 k Thy1.2^+ CD45.2^+, 10 k Thy1.2^− CD45.2^+, 2 k YFP^+ CD45.2^− for a total of 20 k cells per sample.
Samples were then loaded onto Chromium Chip G (10× Genomics) and partitioned into Gel Bead-in-Emulsions using a chromium controller (10× Genomics). Single cell RNA libraries were generated following the manufacturer's instructions of the Chromium Next GEM Single Cell 3′ Reagent Kit v3.1 (10× Genomics) followed by sequencing on a NovaSeq6000 at the NGS Core of the Salk Institute. Cellranger count was used to align reads to the mm10 genome and YFP. The resulting counts matrix was then processed using the R package scran^54 and outlying cells identified with quickPerCellQC (stats, percent_subsets=“subsets_Mito_percent”) were discarded. Data was log normalized using quickCluster, computeSumFactors and logNormCounts. The top 10% most variable genes were calculated using modelGeneVarByPoisson and getTopHVGs and then used in the PCA calculation using denoisePCA. The top 50 principal components were used to calculate a UMAP dimensional reduction using the runUMAP function (metric=“cosine”, min_dist=0.3 and n_neighbors=30). Leiden clustering was performed with igraph's cluster_leiden (with resolution=0.05) after running buildSNNGraph (with k=25). Cell types were annotated using SingleR^55 and the ImmGenData labels as a reference using default parameters. For further analysis the dataset was filtered on T cells according to the SingleR labels and variable genes, PCA and UMAP were calculated with the same settings described above. Clustering of T cells was performed using cluster_leiden with the resolution set to 1.8. For visualization, data imputation was performed using MAGIC^56 using the exact solver. To assign biological relevance to the T cell clusters, a heatmap of the median log normalized expression (using aggregateAcrossCells) of selected markers was generated and visualized using ComplexHeatmap^57. Differential genes for the clusters were identified by performing pairwise comparison of one cluster against all other clusters using the findMarkers function (test.type=“binom”, lfc=0.1, direction=“up”). Gene signatures for T cell exhaustion and TRn cells were obtained from Wherry et al and Milner et al respectively^45,58 in addition to the MSigDB hallmark gene sets. Gene signature scores were calculated using AUCell^59 (aucMaxRank set to 5%). […]

YUMMER1.7 melanomas = experiment: YUMMER1.7 melanoma in mice, beta-blocker alone or with ICB; format: in vivo; conditions: for cytokine production by CD8+ T cells: combination with ICB, tumor CD8+ T cells stimulated with PMA/ionomycin
ADRB1 = ADRB1 (Mus musculus, UniProt P34971); parameters: dose or concentration left out as unconfirmed; conditions: Adrb1 OE P14+ cells vs empty vector; for CD8+ T cell cytokine production: gp33 stimulation; for CD8+ T cell proliferation: up to 6 days of culture
ADRB1, sequence (P34971 whole entry): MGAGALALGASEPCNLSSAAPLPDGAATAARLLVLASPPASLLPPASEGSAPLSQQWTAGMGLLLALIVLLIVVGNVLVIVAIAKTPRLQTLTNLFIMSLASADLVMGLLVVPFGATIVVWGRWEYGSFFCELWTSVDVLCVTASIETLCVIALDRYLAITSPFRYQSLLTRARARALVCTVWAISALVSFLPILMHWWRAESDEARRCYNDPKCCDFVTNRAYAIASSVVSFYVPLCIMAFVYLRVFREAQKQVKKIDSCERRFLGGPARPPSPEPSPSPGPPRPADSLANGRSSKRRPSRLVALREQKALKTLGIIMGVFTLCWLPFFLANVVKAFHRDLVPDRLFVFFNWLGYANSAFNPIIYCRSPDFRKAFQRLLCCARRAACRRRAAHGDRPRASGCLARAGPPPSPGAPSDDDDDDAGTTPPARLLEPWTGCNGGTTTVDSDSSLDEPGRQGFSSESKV

LCMV-clone 13 = format: in vivo, mice
ADRB1 vs. ADRB2 = conditions: relative to β1; cited from earlier work
[2] = gp33+ CD8+ T cells, d37 p.i., vs untreated

CC(C)NCC(O)COc1cccc2ccccc12 (stereo not shown) [propranolol]
tumor cell proliferation (tumor expression of Ki67 relative to IgG, IHC) (PDAC tumors; beta-blocker alone vs IgG, PDAC tumors): does not directly affect tumor cell proliferation
CD8+ T cells in the tumors (PDAC tumors; combination with ICB): increase
production of IFNγ and GZMB (PDAC tumors; combination with ICB, after PMA/ionomycin stimulation): increased production
expression of the activation/exhaustion markers PD-1 and TIM3 (PDAC tumors; combination with ICB, tumor CD8+ T cells): higher expression
tumor growth (abdominal ultrasound volume and tumor mass) (PDAC tumors): significantly reduced
T cell clusters 1 and 5 (TRM-like and exhausted CD8+ T cells) ([1]; combination treatment with ICB): enriched
cytokine and chemokine production (Gzma, Tgfb1, Gzmb, Xcl1, Ccl3, Ccl4, Ifng, Prf1) of CD8+ T cells ([1]; combination treatment with ICB): enhanced
signatures for T cell response, exhaustion and TRM ([1]; combination treatment with ICB): enriched
upregulated genes in CD8+ T cells compared to the isotype control ([1]; propranolol and ICB therapy): 272 genes

Cn1cc(C(F)(F)F)nc1-c1ccc(OCC(O)CNCCOc2ccc(O)c(C(N)=O)c2)cc1 (stereo not shown) [CGP 20712A]
cytokine production by CD8+ T cells (YUMMER1.7 melanomas): significantly increased

NC[C@H](O)c1ccc(O)c(O)c1 [noradrenaline]
CD8+ T cell cytokine production (ADRB1): impairs
CD8+ T cell proliferation (ADRB1): impairs

CC(C)NCC(O)COc1ccc(CC(N)=O)cc1 (stereo not shown) [atenolol]
frequencies of IFNγ-, TNF- and GZMB-producing virus-specific CD8+ T cells (LCMV-clone 13; after gp33 stimulation for 6 h, d37 p.i., vs untreated): higher frequencies
expansion of virus-specific CD8+ T cells that displayed features of TEXprog, at the expense of TEXeff and TEXterm (LCMV-clone 13; atenolol 0.5 mg/ml in drinking water throughout infection vs untreated, spleen, d37 p.i.): greater expansion
amounts of CREM in virus-specific CD8+ T cells (LCMV-clone 13; [2]): lowered
amounts of cAMP in virus-specific CD8+ T cells (LCMV-clone 13; [2]): lowered
viral titers (LCMV-clone 13; serum of LCMV-clone 13-infected mice, vs untreated): lower viral titers
tumor cell proliferation (tumor expression of Ki67 relative to IgG, IHC) (YUMMER1.7 melanomas; beta-blocker alone vs IgG, YUMMER tumors): does not directly affect tumor cell proliferation
effects on differentiation of exhausted T cells (YUMMER1.7 melanomas; combination with ICB (anti-PD-1 + anti-CTLA-4)): did not extend beyond those of the checkpoint therapy alone
tumor size (normalized tumor mass relative to IgG control) (YUMMER1.7 melanomas; combination with ICB (anti-PD-1 + anti-CTLA-4), compared to untreated or beta-blocker alone): significantly smaller
cytokine production by CD8+ T cells (YUMMER1.7 melanomas): dramatically increased
tumor growth (PDAC tumors): failed to suppress tumor growth
tumor growth (abdominal ultrasound volume and tumor mass) (PDAC tumors): failed to suppress tumor growth
block of the β2-adrenergic receptor (ADRB1 vs. ADRB2): to a lower degree

CNCC(O)c1ccc(O)c(O)c1 (stereo not shown) [adrenaline]
CD8+ T cell cytokine production (ADRB1): impairs
CD8+ T cell proliferation (ADRB1): impairs

Cc1ccc(OCC(O)C(C)NC(C)C)c2c1CCC2 (stereo not shown) [ICI 11855135]
tumor growth (PDAC tumors): failed to suppress tumor growth
tumor growth (abdominal ultrasound volume and tumor mass) (PDAC tumors): failed to suppress tumor growth
